Reference: patent US20100099564A1, “HERBICIDE COMBINATION COMPRISING DIMETHOXYTRIAZINYL-SUBSTITUTED DIFLUOROMETHANESULFONYLANILIDES” (BAYER CROPSCIENCE AG, priority 2008, published 2010)
Where two headings read alike, the source gives them in different places.

Key:
Assay type in all cases: in vivo
[1] = system: Triticum aestivum (TRZAS); assay: Post-emergence action, greenhouse pot test, visual scoring: TRZAS; conditions: for plant injury at 200 g/ha: B 200 g of ai/ha
Procedure: (§1) Seeds or rhizome pieces of mono- and dicotyledonous harmful and useful plants were placed in peat pots (diameter 4 cm) filled with sandy loam and then covered with soil. The pots were kept in a greenhouse under optimum conditions. In addition, harmful plants encountered in paddy rice cultivation were cultivated in pots with a water level 2 cm above the soil surface.
(§2) About three weeks after the start of the cultivation, the test plants were treated at the 2- to 3-leaf stage. The herbicides, formulated as powder or liquid concentrates, were, either alone or in the combinations according to the invention, sprayed in various dosages on to the green parts of the plants using an application rate of 600 l of water/ha (converted). For further cultivation of the plants, the pots were then again kept under optimum conditions in a greenhouse.
(§3) The visual scoring of the herbicidal effects was carried out in intervals up to 21 days after the treatment. Scoring was carried out in percent in comparison to the untreated control plants. 0%=no herbicidal activity, 100%=complete herbicidal activity=complete kill.
(§4) The percentages from the treatments with the herbicides alone (=individual application) and with the combinations according to the invention (=mixtures) were employed to calculate interactions using the method of Colby. When the observed efficacies of the mixtures exceed the formal sum of the values of the tests with individual applications, they also exceed the expected value according to Colby, which is calculated using the formula below (cf. S. R. Colby; in Weeds 15 (1967) pp. 20 to 22):
(§5) Here: • A, B=activity of components A and B in percent at a dosage of a and b g of ai/ha (=gramm of active substance per hectare), respectively. • E=expected value in % at a dosage of a+b g of ai/ha.
(§6) The combinations according to the invention of herbicides from group (A) with herbicides from group (B) were tested on a broad spectrum of important harmful plants (weed grasses, broad-leaved weeds/Cyperaceae) and useful plants: Triticum aestivum (TRZAS), Stellaria media (STEME), Lolium multiflorum (LOLMU), Veronica persica (VERPE), Alopecurus myosuroides (ALOMY), Matricaria inodora (MATIN), Brassica napus (BRSNW), Viola tricolor (VIOTR), Avena fatua (AVEFA), Amaranthus retroflexus (AMARE), Zea mays (ZEAMX), Pharbitis purpurea (PHBPU), Setaria viridis (SETVI), Fallopia (ex Polygonum) convolvulus (POLCO), Echinochloa crusgaffi (ECHCG), Abuthilon theophrasti (ABUTH), Cyperus esculentus (CYPES), Oryza sativa (ORYSA).
(§7) Of particular interest are the results shown in the tables (Tab.) below, where the following key is used: • (1) EPPO code (former Bayer code) for the treated plant (see above) • (2) Time of scoring: DAT (days after treatment) • (3) Component A tested (identifying number) • (4) Component B tested (identifying number) • (5) Dosage component A [g of ai/ha] • (6) Dosage component B [g of ai/ha] • (7) % activity found • (8) E value (calculated according to Colby; see above) • (9) Comments: “SYNERGY” =synergistic interaction (E value<% activity found); “SAFENING”=safener action on useful plant (E value>% activity found)

[2] = system: Stellaria media (STEME); assay: Post-emergence action, greenhouse pot test, visual scoring: STEME; conditions: 10 DAT
Procedure: as §1, §2, §3, §4, §5, §6, §7

[3] = system: Veronica persica (VERPE); assay: Post-emergence action, greenhouse pot test, visual scoring: VERPE
Procedure: as §1, §2, §3, §4, §5, §6, §7

[4] = system: Alopecurus myosuroides (ALOMY); assay: Post-emergence action, greenhouse pot test, visual scoring: ALOMY; conditions: for pest or weed control at 400 g/ha: B 400 g of ai/ha
Procedure: as §1, §2, §3, §4, §5

[5] = system: Matricaria inodora (MATIN); assay: Post-emergence action, greenhouse pot test, visual scoring: MATIN
Procedure: as §1, §2, §3, §4, §5

[6] = system: Viola tricolor (VIOTR); assay: Post-emergence action, greenhouse pot test, visual scoring: VIOTR
Procedure: as §1, §2, §3, §4, §5, §6, §7

[7] = system: Avena fatua (AVEFA); assay: Post-emergence action, greenhouse pot test, visual scoring: AVEFA
Procedure: as §1, §2, §3, §4, §5, §6, §7

[8] = system: Amaranthus retroflexus (AMARE); assay: Post-emergence action, greenhouse pot test, visual scoring: AMARE
Procedure: as §1, §2, §3, §4, §5

[9] = system: Pharbitis purpurea (PHBPU); assay: Post-emergence action, greenhouse pot test, visual scoring: PHBPU
Procedure: as §1, §2, §3, §4, §5, §6, §7

[10] = system: Fallopia (ex Polygonum) convolvulus (POLCO); assay: Post-emergence action, greenhouse pot test, visual scoring: POLCO; conditions: 21 DAT
Procedure: as §1, §2, §3, §4, §5, §6, §7

[11] = system: Abuthilon theophrasti (ABUTH); assay: Post-emergence action, greenhouse pot test, visual scoring: ABUTH; conditions: 21 DAT
Procedure: as §1, §2, §3, §4, §5, §6, §7

[12] = system: Cyperus esculentus (CYPES); assay: Post-emergence action, greenhouse pot test, visual scoring: CYPES; conditions: for (7) % activity found: rate (6) 18
Procedure: as §1, §2, §3, §4, §5

[13] = system: Lolium multiflorum (LOLMU); assay: Post-emergence action, greenhouse pot test, visual scoring: LOLMU; conditions: for % activity found: 10 DAT; for (7) % activity found: 21 DAT
Procedure: as §1, §2, §3, §4, §5, §6, §7

[14] = system: Zea mays (ZEAMX); assay: Post-emergence action, greenhouse pot test, visual scoring: ZEAMX; conditions: Zea mays, post-emergence, read-out: % activity found; for plant injury at 1200 g/ha: B 1200 g of ai/ha; for plant injury at 200 g/ha: B 200 g of ai/ha
Procedure: as §1, §2, §3, §4, §5, §6, §7

[15] = system: Setaria viridis (SETVI); assay: Post-emergence action, greenhouse pot test, visual scoring: SETVI; conditions: 21 DAT
Procedure: as §1, §2, §3, §4, §5, §6, §7

[16] = system: Oryza sativa (ORYSA); assay: Post-emergence action, greenhouse pot test, visual scoring: ORYSA; conditions: Oryza sativa, post-emergence, read-out: % activity found
Procedure: as §1, §2, §3, §4, §5, §6, §7

[17] = system: Echinochloa crusgaffi (ECHCG); assay: Post-emergence action, greenhouse pot test, visual scoring: ECHCG; conditions: 10 DAT
Procedure: as §1, §2, §3, §4, §5, §6, §7

[18] = 504 h, 21 DAT, B 600 g of ai/ha

CCCOCCN(C(=O)CCl)c1c(CC)cccc1CC [B4-8, 2-chloro-N-(2,6-diethylphenyl)-N-(2-propoxyethyl)acetamide]
20%: % activity found ([8]; 21 DAT, dose (6) 300) | % activity found ([10]; dose (6) 300)
30%: % activity found ([7]; 21 DAT, dose (6) 300)
0%: % activity found ([3]; 10 DAT, dose (6) 100) | % activity found ([3]; 10 DAT, dose (6) 300) | % activity found ([3]; 21 DAT, dose (6) 100) | % activity found ([3]; 21 DAT, dose (6) 300) | % activity found ([5]; 10 DAT, dose (6) 100) | % activity found ([5]; 21 DAT, dose (6) 100) | % activity found ([7]; 10 DAT, dose (6) 100) | % activity found ([7]; 21 DAT, dose (6) 100) | % activity found ([9]; 21 DAT, dose (6) 100) | % activity found ([9]; 21 DAT, dose (6) 300) | % activity found ([10]; dose (6) 100) | % activity found ([11]; dose (6) 100) | % activity found ([11]; dose (6) 300) | % activity found ([12]; 21 DAT, dose (6) 100) | % activity found ([12]; 21 DAT, dose (6) 300)
10%: plant injury at 300 g/ha ([1]; Triticum aestivum, post-emergence, 240 h, 10 DAT, B 300 g of ai/ha, read-out: % activity found) | % activity found ([2]; dose (6) 100) | % activity found ([2]; dose (6) 300) | pest or weed control at 100 g/ha ([4]; Alopecurus myosuroides, post-emergence, 240 h, 10 DAT, B 100 g of ai/ha, read-out: % activity found) | % activity found ([6]; 21 DAT, dose (6) 100)

CCCCOCN(C(=O)CCl)c1c(CC)cccc1CC [B4-3, N-(butoxymethyl)-2-chloro-N-(2,6-diethylphenyl)acetamide]
40%: % activity found ([13]; B 400 g of ai/ha) | % activity found ([5]; 21 DAT, B 1200 g of ai/ha)
20%: % activity found ([3]; 21 DAT, B 1200 g of ai/ha) | pest or weed control at 400 g/ha ([4]; Alopecurus myosuroides, post-emergence, 240 h, 10 DAT, read-out: % activity found) | % activity found ([5]; 10 DAT, B 1200 g of ai/ha) | plant injury at 1200 g/ha ([14]; 240 h, 10 DAT)
50%: pest or weed control at 1200 g/ha ([4]; Alopecurus myosuroides, post-emergence, 504 h, 21 DAT, B 1200 g of ai/ha, read-out: % activity found) | % activity found ([7]; 21 DAT, B 1200 g of ai/ha)
0%: plant injury at 400 g/ha ([1]; Triticum aestivum, post-emergence, 240 h, 10 DAT, B 400 g of ai/ha, read-out: % activity found) | % activity found ([2]; B 400 g of ai/ha) | % activity found ([3]; 10 DAT, B 400 g of ai/ha) | % activity found ([3]; 10 DAT, B 1200 g of ai/ha) | pest or weed control at 400 g/ha ([4]; Alopecurus myosuroides, post-emergence, 504 h, 21 DAT, read-out: % activity found) | % activity found ([5]; 10 DAT, B 400 g of ai/ha) | % activity found ([5]; 21 DAT, B 400 g of ai/ha) | % activity found ([8]; 10 DAT, B 400 g of ai/ha) | % activity found ([8]; 10 DAT, B 1200 g of ai/ha) | plant injury at 1200 g/ha ([14]; 504 h, 21 DAT) | % activity found ([9]; 10 DAT, B 400 g of ai/ha) | % activity found ([9]; 10 DAT, B 1200 g of ai/ha) | % activity found ([9]; 21 DAT, B 400 g of ai/ha) | % activity found ([9]; 21 DAT, B 1200 g of ai/ha) | pest or weed control at 400 g/ha ([15]; Setaria viridis, post-emergence, 504 h, B 400 g of ai/ha, read-out: % activity found) | % activity found ([10]; B 400 g of ai/ha) | % activity found ([10]; B 1200 g of ai/ha) | % activity found ([11]; B 400 g of ai/ha) | plant injury at 400 g/ha ([16]; 240 h, 10 DAT, B 400 g of ai/ha)

COc1cc(OC)nc(NC(=O)NS(=O)(=O)Nc2ccccc2C(=O)C2CC2)n1 [B7-7, N-[[[2-(cyclopropylcarbonyl)phenyl]amino]sulfonyl]-N′-(4,6-dimethoxy-2-pyrimidinyl)urea]
40%: (7) % activity found ([4]; 21 DAT, rate (6) 54) | (7) % activity found ([12]; 21 DAT)
10%: (7) % activity found ([7]; 21 DAT, rate (6) 54)
30%: (7) % activity found ([4]; 21 DAT, rate (6) 18) | % activity found ([7]; 10 DAT, dose (6) 54)
0%: (7) % activity found ([1]; 21 DAT, rate (6) 18) | (7) % activity found ([1]; 21 DAT, rate (6) 54) | % activity found ([13]; dose (6) 18) | % activity found ([13]; dose (6) 54) | (7) % activity found ([13]; rate (6) 18) | (7) % activity found ([13]; rate (6) 54) | % activity found ([7]; 10 DAT, dose (6) 18) | (7) % activity found ([7]; 21 DAT, rate (6) 18) | (7) % activity found ([17]; rate (6) 18) | (7) % activity found ([17]; rate (6) 54) | (7) % activity found ([12]; 10 DAT)
20%: (7) % activity found ([15]; rate (6) 18) | (7) % activity found ([15]; rate (6) 54)

CN(C(=O)COc1nc2ccccc2s1)c1ccccc1 [B3-4, 2-(2-benzothiazolyloxy)-N-methyl-N-phenylacetamide]
0%: plant injury at 200 g/ha ([1]; Triticum aestivum, post-emergence, 504 h, 21 DAT, read-out: % activity found) | % activity found ([5]; 10 DAT, B 200 g of ai/ha) | % activity found ([5]; 10 DAT, B 600 g of ai/ha) | % activity found ([5]; 21 DAT, B 200 g of ai/ha) | % activity found ([6]; 10 DAT, B 200 g of ai/ha) | % activity found ([6]; 10 DAT, B 600 g of ai/ha) | % activity found ([7]; 21 DAT, B 200 g of ai/ha) | plant injury at 200 g/ha ([14]; 240 h, 10 DAT) | plant injury at 200 g/ha ([14]; 504 h, 21 DAT) | % activity found ([9]; 21 DAT, B 200 g of ai/ha) | % activity found ([10]; B 200 g of ai/ha) | % activity found ([10]; B 600 g of ai/ha) | % activity found ([11]; B 200 g of ai/ha) | % activity found ([11]; B 600 g of ai/ha) | % activity found ([12]; 21 DAT, B 200 g of ai/ha) | % activity found ([12]; 21 DAT, B 600 g of ai/ha)
20%: % activity found ([5]; 21 DAT, B 600 g of ai/ha) | plant injury at 600 g/ha [16, 18]
10%: plant injury at 200 g/ha ([1]; Triticum aestivum, post-emergence, 240 h, 10 DAT, read-out: % activity found) | % activity found ([2]; B 200 g of ai/ha) | plant injury at 600 g/ha [14, 18]
30%: pest or weed control at 200 g/ha ([15]; Setaria viridis, post-emergence, 504 h, B 200 g of ai/ha, read-out: % activity found)
